≈ marks a conversion by molar mass, not a printed value. Like-named read-outs stand apart in the source and are kept apart here.
Columns and labels:
[1] = test system: Saccharomyces cerevisiae (Sc); test: Yeast growth inhibition assay; assay type: cell-based; settings: for IC75: Saccharomyces cerevisiae, ≥75% inhibition, read-out: Compound Concentration (ppm) sufficient for ≥75% inhibition, Sc
Experimental: Both tables list the concentration of each compound that was sufficient to ≥90% inhibition of growth for each of the fungal pathogens listed above. In addition, some of compounds were tested in a yeast growth inhibition assay for Saccharomyces cerevisiae (Sc). Table 2 lists the concentration of the tested compound that was sufficient to ≥75% inhibition of Saccharomyces cerevisiae (Sc).

[2] = test system: Phytophthora capsici (Pc); test: In vitro pathogen growth inhibition assay, Pc; assay type: cell-based; settings: 48 h
In short: (§1)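 Value reported is the compound concentration reaching ≥90% growth inhibition, from OD readings at 24 and 48 h after blank subtraction, confirmed visually. Inoculum was spores diluted in 17% V8 medium, except Rs, using 1.5 mm mycelial plugs in ¼ PDB; actual compound concentration corrected via OD600.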

Phakopsora pachyrhizi = test: Foliar protection test for Asian soybean rust control; assay type: in vivo; settings: foliar application to soybean (Glycine max AG4832), percent disease area evaluated 14 days later
Septoria tritici (St) = test: In vitro pathogen growth inhibition assay, St; assay type: cell-based; settings: Zymoseptoria tritici, 48 h
In short: (§2)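 Spores in 17% V8 liquid medium, or 1.5 mm Rs mycelial plugs in ¼ PDB, incubated with compound; final concentration checked by OD600 for precipitation. OD readings at 24 and 48 h, blank-subtracted, plus visual ratings; value is concentration giving ≥90% growth inhibition.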

Sphaerotheca fuliginea = test: Foliar protection for cucumber powdery mildew control; assay type: in vivo; settings: foliar spray on Cucumis sativus cv. Straight Eight, inoculated 24 hours after treatment, evaluated 7 days later
In short: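 Cucumber plants (cv. Straight Eight, 10 days old) sprayed to wetness on both leaf surfaces, then inoculated 24 h later by shaking sporulating stock plants over them. Held at 23–27 °C, 16 h light, 60% RH. Mildew colonization scored 7 days after inoculation, at compound concentrations of 10 ppm or lower.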

Botrtyis cinerea (Bc) = test: In vitro pathogen growth inhibition assay, Bc; assay type: cell-based; settings: 48 h
In short: as §2

Fusarium graminearum = assay type: in vivo; settings: spray on flowering Triticum aestivum cv. Samson, inoculated 24 hours after treatment, evaluated 14 days later
[3] = test system: Collectotrichum graminicola (Cg); test: In vitro pathogen growth inhibition assay, Cg; assay type: cell-based; settings: 48 h
In short: as §2

Diplodia maydis (Dm) = test: In vitro pathogen growth inhibition assay, Dm; assay type: cell-based; settings: Stenocarpella maydis, 48 h
In short: as §1

[4] = test system: Mycosphaerella graminicola (synthetic Septoria tritici); test: Foliar protection test for wheat septoria leaf blotch control; assay type: in vivo; settings: foliar spray on Triticum aestivum cv. WinterHawk, inoculated 1 hour after treatment, evaluated 16 days later
Puccinia triticina = test: Foliar protection test for wheat leaf rust control; assay type: in vivo; settings: foliar application to wheat (Triticum aestivum cv. Winterhawk), evaluated 10 days later
[5] = test system: Blumeria graminis f. sp. hordei; test: Foliar protection test for barley powdery mildew control; assay type: in vivo; settings: foliar spray on Hordeum vulgare cv. Perry, inoculated 24 hours after treatment, evaluated 7 days later
In short: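 Six-day-old barley (cv. Perry) sprayed to wetness on both leaf sides; 24 h later inoculated by shaking spores from infected stock plants. Kept at 20 to 22° C, 70% relative humidity; mildew colonization assessed 7 days later.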

Rhizoctonia solani (Rs) = test: In vitro pathogen growth inhibition assay, Rs (mycelial plugs); assay type: cell-based; settings: Rhizoctonia solani, 48 h, mycelial plugs
In short: as §1

[6] = test system: Fusarium virguliforme (Fv); test: In vitro pathogen growth inhibition assay, Fv; assay type: cell-based
In short: as §1

[7] = test system: Fusarium moniliforme (Fm); test: In vitro pathogen growth inhibition assay, Fm; assay type: cell-based; settings: Fusarium verticillioides
In short: as §2

[8] = ≥90% inhibition, 48 hours vs 2% DMSO control, read-out: Compound Concentration (ppm) sufficient for ≥90% inhibition of growth, Pc
[9] = ≥90% inhibition, 48 hours vs 2% DMSO control, read-out: Compound Concentration (ppm) sufficient for ≥90% inhibition of growth, St
[10] = ≥90% inhibition, 48 hours vs 2% DMSO control, read-out: Compound Concentration (ppm) sufficient for ≥90% inhibition of growth, Bc
[11] = ≥90% inhibition, 48 hours vs 2% DMSO control, read-out: Compound Concentration (ppm) sufficient for ≥90% inhibition of growth, Cg
[12] = ≥90% inhibition, 48 hours vs 2% DMSO control, read-out: Compound Concentration (ppm) sufficient for ≥90% inhibition of growth, Dm
[13] = ≥90% inhibition, 48 hours vs 2% DMSO control, read-out: Compound Concentration (ppm) sufficient for ≥90% inhibition of growth, Rs
[14] = ≥90% inhibition, 48 hours vs 2% DMSO control, read-out: Compound Concentration (ppm) sufficient for ≥90% inhibition of growth, Fv
[15] = ≥90% inhibition, 48 hours vs 2% DMSO control, read-out: Compound Concentration (ppm) sufficient for ≥90% inhibition of growth, Fm
[16] = ≥90% growth inhibition, 48 hours, vs 2% DMSO control, read-out: Compound Concentration (ppm) sufficient for ≥90% inhibition of Pc
[17] = ≥90% growth inhibition, 48 hours, vs 2% DMSO control, read-out: Compound Concentration (ppm) sufficient for ≥90% inhibition of St
[18] = ≥90% growth inhibition, 48 hours, vs 2% DMSO control, read-out: Compound Concentration (ppm) sufficient for ≥90% inhibition of Bc
[19] = ≥90% growth inhibition, 48 hours, vs 2% DMSO control, read-out: Compound Concentration (ppm) sufficient for ≥90% inhibition of Cg
[20] = ≥90% growth inhibition, 48 hours, vs 2% DMSO control, read-out: Compound Concentration (ppm) sufficient for ≥90% inhibition of Dm
[21] = ≥90% growth inhibition, 48 hours, vs 2% DMSO control, read-out: Compound Concentration (ppm) sufficient for ≥90% inhibition of Rs
[22] = ≥90% growth inhibition, 48 hours, vs 2% DMSO control, read-out: Compound Concentration (ppm) sufficient for ≥90% inhibition of Fv
[23] = ≥90% growth inhibition, 48 hours, vs 2% DMSO control, read-out: Compound Concentration (ppm) sufficient for ≥90% inhibition of Fm

SMILES	IC75 [1] [µg/mL]	IC90 [2, 8] [µg/mL]	IC90 (Septoria tritici (St); [9]) [µg/mL]	IC90 (Botrtyis cinerea (Bc); [10]) [µg/mL]	IC90 [3, 11] [µg/mL]	IC90 (Diplodia maydis (Dm); [12]) [µg/mL]	IC90 (Rhizoctonia solani (Rs); [13]) [µg/mL]	IC90 [6, 14] [µg/mL]	IC90 [7, 15] [µg/mL]	other results
CCOC(=O)c1sc2c(c1C)c(=O)n(C(C)(C)C(=O)N1CCCC1)c(=O)n2C[C@H](OC1CCOCC1)c1ccccc1OC [Compound I-003, (R)-ethyl-1-(2-(2-methoxyphenyl)-2-((tetrahydro-2H-pyran-4-yl)oxy)ethyl)-5-methyl-3-(2-methyl-1-oxo-1-(pyrrolidin-1-yl)propan-2-yl)-2,4-dioxo-1,2,3,4-tetrahydrothieno[2,3-d]pyrimidine-6-carboxylate]	0.4 (≈ 0.637 µM)	> 50	≥ 10	2 (≈ 3.19 µM)	0.4 (≈ 0.637 µM)	2 (≈ 3.19 µM)	0.4 (≈ 0.637 µM)	0.4 (≈ 0.637 µM)	0.08 (≈ 0.127 µM)	Asian Soybean Rust Control at a compound concentration of 25 ppm or lower (Phakopsora pachyrhizi): A (from 70% to 84% control of Asian soybean rust); Cucumber Powdery Mildew Control at a compound concentration of 10 ppm or lower (Sphaerotheca fuliginea): AA (≥85% control of cucumber powdery mildew); Wheat Fusarium Head Blight Control at a compound concentration of 25 ppm or lower (Fusarium graminearum): B (from 50 to 69% control of wheat fusarium head blight); Septoria Leaf Blotch Control at a compound concentration of 25 ppm or lower [4]: C (from 25 to 49% control of wheat septoria leaf blotch); Wheat Leaf Rust Control at a compound concentration of 10 ppm or lower (Puccinia triticina): AA (≥85% control of wheat leaf rust); Barley Powdery Mildew Control at a compound concentration of 10 ppm or lower [5]: A (from 70% to 84% control of barley powdery mildew)
COc1ccc(F)cc1[C@H](Cn1c(=O)n(C(C)(C)C(=O)NC(C)C)c(=O)c2c(C)c(-n3cccn3)sc21)OC(C)C [Compound I-014, (R)-2-(1-(2-(5-fluoro-2-methoxyphenyl)-2-isopropoxyethyl)-5-methyl-2,4-dioxo-6-(1H-pyrazol-1-yl)-1,4-dihydrothieno[2,3-d]pyrimidin-3(2H)-yl)-N-isopropyl-2-methylpropanamide]	1.2 (≈ 2.05 µM)	> 50	> 10	0.4 (≈ 0.683 µM)	2 (≈ 3.41 µM)	2 (≈ 3.41 µM)	2 (≈ 3.41 µM)	0.4 (≈ 0.683 µM)	0.08 (≈ 0.137 µM)	Asian Soybean Rust Control at a compound concentration of 25 ppm or lower (Phakopsora pachyrhizi): A (from 70% to 84% control of Asian soybean rust); Cucumber Powdery Mildew Control at a compound concentration of 10 ppm or lower (Sphaerotheca fuliginea): AA (≥85% control of cucumber powdery mildew); Wheat Fusarium Head Blight Control at a compound concentration of 25 ppm or lower (Fusarium graminearum): C (from 25 to 49% control of wheat fusarium head blight); Septoria Leaf Blotch Control at a compound concentration of 25 ppm or lower [4]: D (<25% control of wheat septoria leaf blotch); Wheat Leaf Rust Control at a compound concentration of 10 ppm or lower (Puccinia triticina): A (from 70% to 84% control of wheat leaf rust); Barley Powdery Mildew Control at a compound concentration of 10 ppm or lower [5]: AA (≥85% control of barley powdery mildew)
CCOC(=O)c1sc2c(c1C)c(=O)n(C(C)(C)C(=O)O)c(=O)n2C[C@H](OC(C)C)c1ccccc1OC [Compound I-153]	> 33.3	> 50	> 50	2 (≈ 3.76 µM)	> 50	50 (≈ 93.9 µM)	50 (≈ 93.9 µM)	> 50	2 (≈ 3.76 µM)	
COc1ccccc1[C@H](Cn1c(=O)n(C(C)(C)C(N)=O)c(=O)c2c(C)c(-c3ncco3)sc21)OC1CCC(=O)CC1 [Compound I-154]	3.7 (≈ 6.37 µM)	> 50	> 50	2 (≈ 3.44 µM)	50 (≈ 86.1 µM)	10 (≈ 17.2 µM)	> 50	50 (≈ 86.1 µM)	2 (≈ 3.44 µM)	
CCOC(=O)c1sc2c(c1C)c(=O)n(C(C)(C)C(N)=O)c(=O)n2C[C@H](OC(C)C)c1ccccc1OC [Compound I-155]	33.3 (≈ 62.6 µM)	> 50	> 50	2 (≈ 3.76 µM)	50 (≈ 94.1 µM)	10 (≈ 18.8 µM)	50 (≈ 94.1 µM)	10 (≈ 18.8 µM)	2 (≈ 3.76 µM)	
CCOC(=O)c1sc2c(c1C)c(=O)n(C(C)(C)C(=O)N1CCCCC1)c(=O)n2C[C@H](OC1CCOCC1)c1ccccc1OC [Compound I-168]										Compound Concentration (ppm) sufficient for ≥75% inhibition of Sc [1]: 1.2 ppm; IC90 [2, 16]: > 50 µg/mL; IC90 (Septoria tritici (St); [17]): ≥ 10 µg/mL; IC90 (Botrtyis cinerea (Bc); [18]): 0.4 µg/mL (≈ 0.623 µM); IC90 [3, 19]: 0.4 µg/mL (≈ 0.623 µM); IC90 (Diplodia maydis (Dm); [20]): 2 µg/mL (≈ 3.12 µM); IC90 (Rhizoctonia solani (Rs); [21]): 2 µg/mL (≈ 3.12 µM); IC90 [6, 22]: ≥ 0.4 µg/mL; IC90 [7, 23]: ≥ 0.4 µg/mL
CCNC(=O)C(C)(C)n1c(=O)c2c(C)c(-c3ncco3)sc2n(C[C@H](OC2CCOCC2)c2ccccc2OC)c1=O [Compound I-169]										Compound Concentration (ppm) sufficient for ≥75% inhibition of Sc [1]: 11.0 ppm; IC90 [2, 16]: > 50 µg/mL; IC90 (Septoria tritici (St); [17]): > 50 µg/mL; IC90 (Botrtyis cinerea (Bc); [18]): 10 µg/mL (≈ 16.8 µM); IC90 [3, 19]: 50 µg/mL (≈ 83.8 µM); IC90 (Diplodia maydis (Dm); [20]): ≥ 10 µg/mL; IC90 (Rhizoctonia solani (Rs); [21]): > 50 µg/mL; IC90 [6, 22]: 50 µg/mL (≈ 83.8 µM); IC90 [7, 23]: ≥ 0.4 µg/mL
